Test results as given in patent publication US12227500B2, “Substituted pyrrolo[2,3-b]pyridines for suppressing toxic endoplasmic reticulum stress” (THE TRUSTEES OF COLUMBIA UNIVERSITY IN THE CITY OF NEW YORK, priority 2018, dated 2025).
Where two headings read alike, the source gives them in different places.

Tests used:
Format in all cases: biochemical
[1] = target: T1, MLK1/MAP3K9 (Homo sapiens, UniProt P80192); experiment: Radiolabeled ATP kinase assay (Reaction Biology Corp.), MLK1; conditions: [Cmpd] 0.1 μM, 10 μM ATP
T1 construct: purchased Reaction Biology Corp
T1 sequence (P80192 whole entry): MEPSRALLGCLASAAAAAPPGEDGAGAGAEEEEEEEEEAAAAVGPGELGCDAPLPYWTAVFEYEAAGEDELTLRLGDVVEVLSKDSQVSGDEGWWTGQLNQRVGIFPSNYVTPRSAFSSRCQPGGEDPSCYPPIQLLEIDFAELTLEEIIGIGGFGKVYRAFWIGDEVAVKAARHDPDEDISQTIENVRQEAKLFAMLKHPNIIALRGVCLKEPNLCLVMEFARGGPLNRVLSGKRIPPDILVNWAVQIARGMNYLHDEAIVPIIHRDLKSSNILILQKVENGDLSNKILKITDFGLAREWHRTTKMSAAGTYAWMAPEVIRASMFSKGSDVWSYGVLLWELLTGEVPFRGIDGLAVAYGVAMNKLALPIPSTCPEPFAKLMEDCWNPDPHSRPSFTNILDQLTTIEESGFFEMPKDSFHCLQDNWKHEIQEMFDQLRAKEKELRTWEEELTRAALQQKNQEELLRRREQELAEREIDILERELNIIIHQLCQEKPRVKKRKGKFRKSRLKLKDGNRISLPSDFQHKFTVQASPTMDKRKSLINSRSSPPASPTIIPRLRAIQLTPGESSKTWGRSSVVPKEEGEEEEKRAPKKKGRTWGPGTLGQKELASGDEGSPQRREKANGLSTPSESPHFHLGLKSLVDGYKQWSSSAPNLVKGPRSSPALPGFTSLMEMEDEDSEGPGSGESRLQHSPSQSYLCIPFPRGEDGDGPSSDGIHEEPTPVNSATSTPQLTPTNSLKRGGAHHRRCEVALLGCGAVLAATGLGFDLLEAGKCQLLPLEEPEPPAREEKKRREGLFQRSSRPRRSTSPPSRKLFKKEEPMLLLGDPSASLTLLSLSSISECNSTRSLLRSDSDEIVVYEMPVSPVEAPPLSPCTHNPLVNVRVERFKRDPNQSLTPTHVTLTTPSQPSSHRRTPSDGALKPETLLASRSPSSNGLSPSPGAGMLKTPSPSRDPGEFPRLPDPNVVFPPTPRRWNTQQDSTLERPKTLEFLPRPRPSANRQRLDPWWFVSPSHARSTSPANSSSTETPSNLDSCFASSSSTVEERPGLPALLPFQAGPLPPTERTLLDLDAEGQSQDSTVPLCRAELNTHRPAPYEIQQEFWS
Description: Meanwhile, the same analogs were analyzed in a radiolabeled ATP assay (10 μM ATP; Reaction Biology Corp.) to compare the extent to which they could inhibit the activity of HGK, MLK1, or MLK3 in a cell-free environment (Table S3 and S4).

[2] = target: T2, panel of 60 human kinases (Homo sapiens, UniProt P49841); experiment: Radiolabeled ATP kinase assay, panel of 60 kinases (Table S5); conditions: GSK3b; 0.1 μM; 10 μM ATP; read-out: % Enzyme Activity (relative to DSMO controls)
T2 construct: purchased Reaction Biology Corp
T2 sequence (P49841 whole entry): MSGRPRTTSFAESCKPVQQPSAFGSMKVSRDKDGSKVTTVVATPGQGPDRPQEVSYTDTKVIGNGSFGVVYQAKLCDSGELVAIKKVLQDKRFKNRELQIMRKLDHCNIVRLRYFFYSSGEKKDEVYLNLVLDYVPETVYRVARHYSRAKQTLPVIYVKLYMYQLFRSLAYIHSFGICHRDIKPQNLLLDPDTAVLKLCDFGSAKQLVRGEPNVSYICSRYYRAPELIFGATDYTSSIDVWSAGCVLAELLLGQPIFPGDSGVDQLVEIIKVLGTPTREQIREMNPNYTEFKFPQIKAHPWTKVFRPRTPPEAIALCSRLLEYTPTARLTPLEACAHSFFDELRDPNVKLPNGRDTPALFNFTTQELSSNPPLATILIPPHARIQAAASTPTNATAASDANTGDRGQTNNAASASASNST
In short: (§1)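 Cell-free radiolabeled-ATP kinase assays across a panel of 60 kinases; each compound tested at 0.1 μM and 0.5 μM for inhibition.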

[3] = target: T3, panel of 60 human kinases (Homo sapiens, UniProt Q13470); experiment: as above; conditions: TNK1; 0.1 μM; 10 μM ATP; read-out: % Enzyme Activity (relative to DSMO controls)
T3 construct: purchased Reaction Biology Corp
T3 sequence (Q13470 1-666): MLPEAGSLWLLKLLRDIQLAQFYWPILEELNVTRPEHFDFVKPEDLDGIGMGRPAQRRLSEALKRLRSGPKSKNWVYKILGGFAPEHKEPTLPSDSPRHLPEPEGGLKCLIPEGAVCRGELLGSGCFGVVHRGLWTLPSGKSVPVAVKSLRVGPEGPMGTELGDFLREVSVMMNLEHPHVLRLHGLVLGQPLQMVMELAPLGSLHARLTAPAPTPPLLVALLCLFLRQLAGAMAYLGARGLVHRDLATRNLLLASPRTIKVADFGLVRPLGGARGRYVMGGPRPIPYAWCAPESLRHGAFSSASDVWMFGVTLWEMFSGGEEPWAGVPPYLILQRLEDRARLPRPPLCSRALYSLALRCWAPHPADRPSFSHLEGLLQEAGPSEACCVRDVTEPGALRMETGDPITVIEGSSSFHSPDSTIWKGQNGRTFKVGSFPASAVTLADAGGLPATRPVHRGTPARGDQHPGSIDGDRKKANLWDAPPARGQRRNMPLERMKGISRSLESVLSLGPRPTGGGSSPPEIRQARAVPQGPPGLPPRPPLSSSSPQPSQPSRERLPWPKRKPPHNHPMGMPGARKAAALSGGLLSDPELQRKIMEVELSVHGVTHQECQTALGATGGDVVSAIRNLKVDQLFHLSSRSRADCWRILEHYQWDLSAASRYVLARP
In short: as §1

[4] = target: T4, panel of 60 human kinases (Homo sapiens, UniProt Q15139); experiment: as above; conditions: PKCmu/PRKD1; 0.1 μM; 10 μM ATP; read-out: % Enzyme Activity (relative to DSMO controls)
T4 construct: purchased Reaction Biology Corp
T4 sequence (Q15139 1-912): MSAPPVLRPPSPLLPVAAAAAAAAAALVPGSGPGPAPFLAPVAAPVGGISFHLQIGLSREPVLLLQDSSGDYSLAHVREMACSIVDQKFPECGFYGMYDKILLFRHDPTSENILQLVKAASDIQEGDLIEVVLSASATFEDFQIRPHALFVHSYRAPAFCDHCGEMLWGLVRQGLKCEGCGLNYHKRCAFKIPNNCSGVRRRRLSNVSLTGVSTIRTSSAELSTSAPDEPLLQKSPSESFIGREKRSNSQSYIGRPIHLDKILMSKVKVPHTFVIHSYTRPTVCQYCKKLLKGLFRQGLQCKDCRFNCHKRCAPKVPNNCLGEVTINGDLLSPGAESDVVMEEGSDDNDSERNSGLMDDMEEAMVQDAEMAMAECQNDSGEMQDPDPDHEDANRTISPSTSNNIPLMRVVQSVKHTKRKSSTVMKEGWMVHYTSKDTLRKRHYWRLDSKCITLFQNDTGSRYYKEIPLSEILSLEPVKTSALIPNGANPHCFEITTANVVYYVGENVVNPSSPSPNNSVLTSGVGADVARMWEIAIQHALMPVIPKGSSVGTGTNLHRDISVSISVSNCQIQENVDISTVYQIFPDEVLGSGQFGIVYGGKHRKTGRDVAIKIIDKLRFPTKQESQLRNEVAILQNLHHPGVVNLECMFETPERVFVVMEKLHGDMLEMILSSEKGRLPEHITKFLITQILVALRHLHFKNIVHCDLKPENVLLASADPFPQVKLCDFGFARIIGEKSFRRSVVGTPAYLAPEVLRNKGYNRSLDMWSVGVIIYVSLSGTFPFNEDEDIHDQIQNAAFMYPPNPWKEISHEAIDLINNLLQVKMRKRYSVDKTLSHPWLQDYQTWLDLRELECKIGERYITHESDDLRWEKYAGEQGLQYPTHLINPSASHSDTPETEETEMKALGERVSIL
In short: as §1

[5] = target: T5, panel of 60 human kinases (Homo sapiens, UniProt Q92918); experiment: as above; conditions: HPK1/MAP4K1; 0.1 μM; 10 μM ATP; read-out: % Enzyme Activity (relative to DSMO controls)
T5 construct: purchased Reaction Biology Corp
In short: as §1

[6] = target: T6, panel of 60 human kinases (Homo sapiens, UniProt P45983); experiment: as above; conditions: JNK1; 0.1 μM; 10 μM ATP; read-out: % Enzyme Activity (relative to DSMO controls)
T6 construct: purchased Reaction Biology Corp
T6 sequence (P45983 whole entry): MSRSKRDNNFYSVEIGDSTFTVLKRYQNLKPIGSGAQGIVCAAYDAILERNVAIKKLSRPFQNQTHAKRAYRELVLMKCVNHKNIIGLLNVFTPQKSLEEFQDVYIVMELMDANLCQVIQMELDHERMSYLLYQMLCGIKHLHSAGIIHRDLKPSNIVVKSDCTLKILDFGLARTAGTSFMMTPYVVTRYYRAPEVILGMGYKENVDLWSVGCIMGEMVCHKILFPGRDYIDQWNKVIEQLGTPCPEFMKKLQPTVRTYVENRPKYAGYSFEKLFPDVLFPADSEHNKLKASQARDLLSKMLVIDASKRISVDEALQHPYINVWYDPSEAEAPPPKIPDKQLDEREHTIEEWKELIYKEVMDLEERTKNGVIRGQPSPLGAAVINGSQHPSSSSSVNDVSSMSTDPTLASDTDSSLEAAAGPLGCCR
In short: as §1

[7] = target: T7, panel of 60 human kinases (Homo sapiens, UniProt Q07002); experiment: as above; conditions: CDK18/cyclin Y (PCTK3); 0.1 μM; 10 μM ATP; read-out: % Enzyme Activity (relative to DSMO controls)
T7 construct: purchased Reaction Biology Corp
T7 sequence (Q07002 whole entry): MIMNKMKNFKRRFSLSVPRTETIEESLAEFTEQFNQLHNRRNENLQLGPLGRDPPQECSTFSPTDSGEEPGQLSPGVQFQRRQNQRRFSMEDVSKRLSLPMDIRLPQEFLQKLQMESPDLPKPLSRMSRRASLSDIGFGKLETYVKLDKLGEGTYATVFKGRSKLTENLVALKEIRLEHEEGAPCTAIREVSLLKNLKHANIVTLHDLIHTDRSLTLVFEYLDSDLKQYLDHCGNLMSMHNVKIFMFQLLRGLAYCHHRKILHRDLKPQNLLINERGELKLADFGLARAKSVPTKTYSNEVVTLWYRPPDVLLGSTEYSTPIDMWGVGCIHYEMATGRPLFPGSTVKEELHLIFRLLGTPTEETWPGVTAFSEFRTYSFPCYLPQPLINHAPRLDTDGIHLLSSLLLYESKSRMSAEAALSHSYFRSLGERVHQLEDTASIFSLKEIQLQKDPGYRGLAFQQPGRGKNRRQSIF
In short: as §1

[8] = target: T8, panel of 60 human kinases (Homo sapiens, UniProt Q00536); experiment: as above; conditions: CDK16/cyclin Y (PCTAIRE); 0.1 μM; 10 μM ATP; read-out: % Enzyme Activity (relative to DSMO controls)
T8 construct: purchased Reaction Biology Corp
T8 sequence (Q00536 whole entry): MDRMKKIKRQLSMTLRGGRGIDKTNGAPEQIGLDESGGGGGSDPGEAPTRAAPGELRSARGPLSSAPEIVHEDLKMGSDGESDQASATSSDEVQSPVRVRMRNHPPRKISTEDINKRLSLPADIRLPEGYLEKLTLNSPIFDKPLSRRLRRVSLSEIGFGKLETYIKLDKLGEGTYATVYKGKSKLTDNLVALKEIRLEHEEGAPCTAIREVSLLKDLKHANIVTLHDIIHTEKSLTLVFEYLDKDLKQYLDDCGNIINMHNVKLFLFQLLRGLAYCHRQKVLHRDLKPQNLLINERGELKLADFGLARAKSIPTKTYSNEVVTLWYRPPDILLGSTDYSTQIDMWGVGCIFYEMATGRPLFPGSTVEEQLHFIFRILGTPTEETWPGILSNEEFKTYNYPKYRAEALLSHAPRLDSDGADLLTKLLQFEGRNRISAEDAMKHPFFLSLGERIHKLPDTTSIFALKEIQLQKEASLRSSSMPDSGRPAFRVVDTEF
In short: as §1

[9] = target: T9, panel of 60 human kinases (Homo sapiens, UniProt P11362); experiment: as above; conditions: FGFR1; 0.1 μM; 10 μM ATP; read-out: % Enzyme Activity (relative to DSMO controls)
T9 construct: purchased Reaction Biology Corp
T9 sequence (P11362 22-822): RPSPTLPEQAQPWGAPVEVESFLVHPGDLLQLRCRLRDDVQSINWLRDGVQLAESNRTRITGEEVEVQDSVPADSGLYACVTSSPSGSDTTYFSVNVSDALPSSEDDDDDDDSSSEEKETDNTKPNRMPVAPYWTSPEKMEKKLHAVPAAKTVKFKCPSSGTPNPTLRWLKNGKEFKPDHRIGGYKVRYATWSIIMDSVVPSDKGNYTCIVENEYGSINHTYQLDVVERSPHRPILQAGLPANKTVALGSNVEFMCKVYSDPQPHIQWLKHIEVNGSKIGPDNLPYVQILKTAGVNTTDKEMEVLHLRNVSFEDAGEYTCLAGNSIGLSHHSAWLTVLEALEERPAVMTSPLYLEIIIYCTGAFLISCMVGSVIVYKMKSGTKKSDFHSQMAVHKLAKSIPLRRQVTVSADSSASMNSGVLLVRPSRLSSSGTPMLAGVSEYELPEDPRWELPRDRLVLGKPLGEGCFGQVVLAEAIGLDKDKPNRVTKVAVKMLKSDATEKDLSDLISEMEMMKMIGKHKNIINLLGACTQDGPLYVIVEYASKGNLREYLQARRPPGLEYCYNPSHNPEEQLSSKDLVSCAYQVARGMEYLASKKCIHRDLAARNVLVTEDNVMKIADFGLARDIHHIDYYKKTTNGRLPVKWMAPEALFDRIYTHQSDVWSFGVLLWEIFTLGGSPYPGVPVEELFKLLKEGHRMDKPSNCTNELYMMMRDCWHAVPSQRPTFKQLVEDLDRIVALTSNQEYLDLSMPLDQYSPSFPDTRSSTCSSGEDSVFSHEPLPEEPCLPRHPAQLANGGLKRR
In short: as §1

[10] = target: T10, panel of 60 human kinases (Homo sapiens, UniProt O75460); experiment: as above; conditions: ERN1/IRE1; 0.1 μM; 10 μM ATP; read-out: % Enzyme Activity (relative to DSMO controls)
T10 construct: purchased Reaction Biology Corp
T10 sequence (O75460 19-977): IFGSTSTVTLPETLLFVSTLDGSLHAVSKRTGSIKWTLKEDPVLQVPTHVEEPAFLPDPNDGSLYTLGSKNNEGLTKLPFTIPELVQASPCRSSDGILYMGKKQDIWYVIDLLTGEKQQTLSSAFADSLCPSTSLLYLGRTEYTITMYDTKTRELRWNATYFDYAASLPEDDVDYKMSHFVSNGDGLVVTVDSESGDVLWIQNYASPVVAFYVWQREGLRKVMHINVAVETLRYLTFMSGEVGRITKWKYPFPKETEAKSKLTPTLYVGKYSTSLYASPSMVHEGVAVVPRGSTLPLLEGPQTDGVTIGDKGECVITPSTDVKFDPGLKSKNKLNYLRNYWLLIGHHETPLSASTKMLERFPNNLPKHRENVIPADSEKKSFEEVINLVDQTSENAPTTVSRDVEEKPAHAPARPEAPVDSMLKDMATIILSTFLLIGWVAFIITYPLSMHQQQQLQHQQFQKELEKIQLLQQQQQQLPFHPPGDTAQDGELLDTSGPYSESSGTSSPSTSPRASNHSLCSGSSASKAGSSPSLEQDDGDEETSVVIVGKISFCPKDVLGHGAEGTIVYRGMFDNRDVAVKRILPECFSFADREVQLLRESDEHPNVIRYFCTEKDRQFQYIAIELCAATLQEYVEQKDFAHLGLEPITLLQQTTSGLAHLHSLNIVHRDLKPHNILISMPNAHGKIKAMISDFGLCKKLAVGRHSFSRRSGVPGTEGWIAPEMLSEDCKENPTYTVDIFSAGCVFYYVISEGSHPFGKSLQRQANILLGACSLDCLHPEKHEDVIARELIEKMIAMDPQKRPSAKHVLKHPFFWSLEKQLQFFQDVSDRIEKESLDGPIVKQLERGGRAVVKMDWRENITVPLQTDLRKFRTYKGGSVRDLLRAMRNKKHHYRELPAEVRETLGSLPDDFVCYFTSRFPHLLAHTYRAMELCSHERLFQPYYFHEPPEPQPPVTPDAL
In short: as §1

[11] = read-out: % Enzyme Activity Remaining (relative to DMSO controls), MLK1/MAP3K9, Data 1
[12] = read-out: % Enzyme Activity Remaining (relative to DMSO controls), MLK1/MAP3K9, Data 2

Compound | remaining activity at 0.1 µM [1, 11] [%] | remaining activity at 0.1 µM [1, 12] [%] | remaining activity at 0.1 µM [2] [%] | remaining activity at 0.1 µM [3] [%] | remaining activity at 0.1 µM [4] [%] | remaining activity at 0.1 µM [5] [%] | remaining activity at 0.1 µM [6] [%] | remaining activity at 0.1 µM [7] [%] | remaining activity at 0.1 µM [8] [%] | remaining activity at 0.1 µM [9] [%] | remaining activity at 0.1 µM [10] [%]
Cc1nn(C)c(C)c1-c1c[nH]c2ncc(-c3ccc(CN4CCN(C)CC4)cc3)cc12 [Compound 7ai, 5-(4-((4-Methylpiperazin-1-yl)methyl)phenyl)-3-(1,3,5-trimethyl-1H-pyrazol-4-yl)-1H-pyrrolo[2,3-b]pyridine] | 93.3 | 90.5 | 94 | 63.6 | 14.2 | 67.8 | 77.7 | 100 | 87.7 | 97.5 | 102
COc1ccccc1-c1c[nH]c2ncc(-c3ccc(CN4CCN(C)CC4)cc3)cc12 [Compound 7at, 3-(2-Methoxyphenyl)-5-(4-((4-methylpiperazin-1-yl)methyl)phenyl)-1H-pyrrolo[2,3-b]pyridine] | 31.3 | 30.6 | 97.3 | 38.4 | 38.7 | 55.6 | 102 | 97.1 | 76.9 | 96.4 | 101
CN1CCN(Cc2ccc(-c3cnc4[nH]cc(-c5ccc6[nH]ccc6c5)c4c3)cc2)CC1 [Compound 1, 3-(1H-Indol-5-yl)-5-(4-((4-methylpiperazin-1-yl)methyl)phenyl)-1H-pyrrolo[2,3-b]pyridine, reference compound] | 16.2 | 14.2 | 100 | 28.8 | 11.4 | 24 | 75.3 | 103 | 94.9 | 82.7 | 108
CN1CCN(Cc2ccc(-c3cnc4[nH]cc(-c5cnn(Cc6ccccc6)c5)c4c3)cc2)CC1 [Compound 7ah, 3-(1-Benzyl-1H-pyrazol-4-yl)-5-(4-((4-methylpiperazin-1-yl)methyl)phenyl)-1H-pyrrolo[2,3-b]pyridine] | 51.1 | 48.2 | 60.6 | 37.8 | 4.39 | 17.8 | 18.6 | 16.1 | 8.19 | 91.4 | 104
CN1CCN(Cc2ccc(-c3cnc4[nH]cc(-c5ccc6c(c5)OCCO6)c4c3)cc2)CC1 [Compound 7d, 3-(2,3-Dihydrobenzo[b][1,4]dioxin-6-yl)-5-(4-((4-methylpiperazin-1-yl)methyl)phenyl)-1H-pyrrolo[2,3-b]pyridine] | 25.6 | 23.6 | 30.9 | 44.3 | 4.34 | 11.3 | 52.2 | 82.8 | 58 | 93.2 | 107
CN1CCN(Cc2ccc(-c3cnc4[nH]cc(-c5ccoc5)c4c3)cc2)CC1 [Compound 7w, 3-(Furan-3-yl)-5-(4-((4-methylpiperazin-1-yl)methyl)phenyl)-1H-pyrrolo[2,3-b]pyridine] | 76 | 79.3 | 85.1 | 73.2 | 20.4 | 62.4 | 76.8 | 94.5 | 80.8 | 93.1 | 102
CN1CCN(Cc2ccc(-c3cnc4[nH]cc(-c5cccc(Cl)c5)c4c3)cc2)CC1 [Compound 7ad, 3-(3-Chlorophenyl)-5-(4-((4-methylpiperazin-1-yl)methyl)phenyl)-1H-pyrrolo[2,3-b]pyridine] | 61.9 | 63.6 | 98.1 | 53.5 | 9.7 | 62.5 | 88.7 | 112 | 96.9 | 98.2 | 102
CN1CCN(Cc2ccc(-c3cnc4[nH]cc(-c5ccncc5)c4c3)cc2)CC1 [Compound 7n, 5-(4-((4-Methylpiperazin-1-yl)methyl)phenyl)-3-(pyridin-4-yl)-1H-pyrrolo[2,3-b]pyridine] | 88.9 | 88.7 | 90.7 | 87.8 | 31.5 | 57.7 | 85.5 | 24 | 21.5 | 100 | 107
CN1CCN(Cc2ccc(-c3cnc4[nH]cc(-c5ccccc5Cl)c4c3)cc2)CC1 [Compound 7as, 3-(2-Chlorophenyl)-5-(4-((4-methylpiperazin-1-yl)methyl)phenyl)-1H-pyrrolo[2,3-b]pyridine] | 72.7 | 73.3 | 98.9 | 33.9 | 9.63 | 19.5 | 74.6 | 95.5 | 75.2 | 77.9 | 97.5
